Source: ChEMBL document CHEMBL1125974, “Synthesis of (+/)1-Aza-carbocyclic-pyrimidine-2,3-dideoxynucleoside analogues as potential anti-HIV agents” (Bioorg Med Chem Lett, 1991)

These compounds were tested on MT4 (assay: Tested for inhibitory activity against HIV in whole cell assay (MT-4, RF strain of HIV-1) at a 100 ug/ ml); Inactive and Not toxic). Conditions: Homo sapiens.
Assay type: functional, cell-based
Nc1ccn(N2CCC(CO)C2)c(=O)n1 (stereo not drawn) was tested, and the Activity was “Non-toxic”. With Cc1cn(N2CCC(CO)C2)c(=O)[nH]c1=O (stereo not drawn) the Activity was “Non-toxic”. For O=c1ccn(N2CCC(CO)C2)c(=O)[nH]1 (stereo not drawn), the Activity was “Non-toxic”.
